Columns and labels:
MDA-MB-231 [1] = test: drug sensitivity score (DSS), cell viability CellTiter-Glo; higher = more sensitive; extreme values may be limits of the assay; conditions: 72 h
MDA-MB-231 [2] = test: drug sensitivity score (DSS), cytotoxicity CellTox Green; higher = more cytotoxic; extreme values may be limits of the assay; conditions: 72 h
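For drug sensitivity score (DSS), cytotoxicity CellTox Green in this document: DSS summarises each dose–response curve by combining IC50, EC50, maximal inhibition and efficacy across drug concentrations.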

| Compound | drug sensitivity score (MDA-MB-231 [1]; shRNA: shPPFIA1_1) [DSS] | drug sensitivity score (MDA-MB-231 [1]; shRNA: shScramble) [DSS] | drug sensitivity score (MDA-MB-231 [2]; shRNA: shPPFIA1_1) [DSS] | drug sensitivity score (MDA-MB-231 [2]; shRNA: shScramble) [DSS] |
| --- | --- | --- | --- | --- |
| CC(C)(C)C[C@@H]1N[C@@H](C(=O)N[C@H]2CC[C@H](O)CC2)[C@H](c2cccc(Cl)c2F)[C@]12C(=O)Nc1cc(Cl)ccc12 | 0 | 0 | 0 | 0.7 |
| CC(C)Oc1ccc(C(=O)N[C@H](CNC(=O)CN(C)C)Cc2ccc(-c3cn4cccc([C@H](C)O)c4n3)cc2)cc1Cl | 3.5 | 13.6 | 10.3 | 6.2 |
| CCNC(=O)C[C@@H]1N=C(c2ccc(Cl)cc2)c2cc(OC)ccc2-n2c(C)nnc21 | 0 | 6.2 | 0 | 0 |
| CCn1c(-c2nonc2N)nc2c(C#CC(C)(C)O)ncc(OC[C@H]3CCCNC3)c21 | 0 | 0.2 | 0 | 0 |
| CN(c1ncccc1CNc1nc(Nc2ccc3c(c2)CC(=O)N3)ncc1C(F)(F)F)S(C)(=O)=O | 0.5 | 5.8 | 2.5 | 1.8 |
| CNC(=O)c1ccccc1Nc1nc(Nc2ccc3c(c2OC)CCC[C@H](N2CCN(CCO)CC2)C3)ncc1Cl | 4 | 6.1 | 8.9 | 0 |
| CNc1ncc2cc(-c3cc(NC(=O)NCCC(C)(C)C)c(F)cc3C)c(C)nc2n1 | 0.6 | 14.8 | 21.9 | 19.4 |
| COCC(=O)NC/C=C/c1ccc2ncnc(Nc3ccc(Oc4ccc(C)nc4)c(C)c3)c2c1 | 0 | 0.3 | 2.2 | 0 |
| COc1cc2ncnc(Oc3cccc(NC(=O)Nc4cc(C(C)(C)C(F)(F)F)on4)c3)c2cc1OC | 0 | 7.7 | 4 | 7.8 |
| COc1ccc(Cn2ccc3ccc(C(=O)NO)cc32)cc1 | 0 | 0 | 10.5 | 0 |
| CS(=O)(=O)N1CCc2c(-c3cnc(N)nc3)nc(N3CCOCC3)nc21 | 0 | 7.7 | 0 | 0 |
| C[C@@H]1CN(CC(=O)Nc2ccc3c(c2)Cc2cccc(-c4cc(=O)cc(N5CCOCC5)o4)c2S3)C[C@H](C)O1 | 0 | 3.6 | 0.2 | 0 |
| C[C@H]1Oc2cc(cnc2N)-c2c(nn(C)c2C#N)CN(C)C(=O)c2ccc(F)cc21 | 0 | 0 | 0 | 0 |
| Cc1ccc2nc(CN(CCN(Cc3nc4ccc(C)cc4[nH]3)Cc3nc4ccc(C)cc4[nH]3)Cc3nc4ccc(C)cc4[nH]3)[nH]c2c1 | 0.6 | 2.6 | 6.8 | 1.9 |
| Cc1cccc(CC(=O)N2CCc3c2ccc(-c2cn(C)c4ncnc(N)c24)c3F)n1 | 0 | 0.3 | 15 | 0 |
| Cc1ncc(Cl)cc1NCc1ccc(C(=O)N[C@@H](CC2CCCC2)C(=O)NC2CC2)s1 | 0 | 0 | 0 | 0 |
| Cc1nn(C)c(COc2ccc(N3CCN(S(=O)(=O)N(C)C)CC3)cc2)c1-c1cccc2c(CCCOc3cccc4ccccc34)c(C(=O)O)n(CCN3CCOCC3)c12 | 13.3 | 4.2 | 2.4 | 7.1 |
| Cn1cc(-c2ccc3nnc(C(F)(F)c4ccc5ncccc5c4)n3n2)cn1 | 0 | 6.9 | 0 | 0 |
| NCC(=O)Nc1ccc(-n2nc(C(F)(F)F)cc2-c2ccc3c(ccc4ccccc43)c2)cc1 | 5 | 8.7 | 8 | 7.3 |
| NC[C@@](O)(c1ccc(Cl)cc1)c1ccc(-c2cn[nH]c2)cc1 | 3 | 6 | 7.8 | 7.6 |
| O=C(NC[C@H](O)CN1CCc2ccccc2C1)c1cc(NC2COC2)ncn1 | 0.5 | 1.8 | 0 | 0 |
| O=C(O)c1ccc(CN2CCC(CN[C@@H]3C[C@H]3c3ccccc3)CC2)cc1 | 0 | 0 | 0 | 0 |

| Compound | drug sensitivity score (MDA-MB-231 [1]; shRNA: shPPFIA1_1) [DSS] | drug sensitivity score (MDA-MB-231 [1]; shRNA: shScramble) [DSS] | drug sensitivity score (MDA-MB-231 [2]; shRNA: shPPFIA1_1) [DSS] | drug sensitivity score (MDA-MB-231 [2]; shRNA: shScramble) [DSS] |
| --- | --- | --- | --- | --- |
| O=C1NC(=O)/C(=C/c2ccc3nccc(-c4ccncc4)c3c2)S1 | 0 | 4.3 | 0 | 0 |
| O=c1[nH]c(C2CCCN2)nc2c1oc1ccc(Cl)cc12 (centres undefined) | 0 | 0 | 0 | 0 |
| OCCn1cc(-c2cnc3nnn(Cc4ccc5ncccc5c4)c3n2)cn1 | 0.9 | 0 | 0 | 0 |
| COc1ccc(C[C@H](NC(=O)[C@H](C)NC(=O)CN2CCOCC2)C(=O)N[C@@H](Cc2ccccc2)C(=O)C2(C)CO2)cc1 (stereo in doubt) [ONX-0914] | 17.1 | 18.1 | 19.1 | 18.6 |
| Cn1cc(C[C@@H](N)C(=O)O)c2ccccc21 [1-methyl-D-tryptophan] | 0 | 0.9 | 0 | 0 |
| COc1cc2c(cc1O)CC[C@@H]1[C@@H]2CC[C@]2(C)[C@@H](O)CC[C@@H]12 [2-methoxyestradiol] | 0.7 | 2.9 | 0 | 0.3 |
| CC/C(=C(\c1ccc(O)cc1)c1ccc(OCCN(C)C)cc1)c1ccccc1 [4-hydroxytamoxifen] | 2.7 | 4.8 | 2.2 | 3.3 |
| Nc1ncnc2c1nc(N)n2[C@@H]1O[C@H](CO)[C@@H](O)[C@H]1O [8-amino-adenosine] | 18.1 | 22.8 | 12.2 | 13.8 |
| Nc1ncnc2c1nc(Cl)n2[C@@H]1O[C@H](CO)[C@@H](O)[C@H]1O [8-chloro-adenosine] | 1.3 | 10.6 | 0.9 | 0 |
| CCCCC/C=C/C=C1/C(=O)C=C[C@@H]1C/C=C\CCCC(=O)O [15D-PGJ2] | 0 | 0 | 0 | 0 |
| COc1cc(O)c2c(c1)/C=C/C[C@H](O)[C@H](O)C(=O)/C=C\C[C@H](C)OC2=O [(5Z)-7-Oxozeaenol] | 0 | 2.1 | 0.4 | 2.7 |
| COc1ccc(S(=O)(=O)Nc2cccnc2Nc2ccc(O)cc2)cc1 [ABT-751] | 0 | 4.5 | 2.1 | 0.1 |
| Cc1ccccc1C(C(=O)NC1CCCCC1)N(C(=O)Cn1ccnc1C)c1cccc(F)c1 (centres undefined) [AGI-5198] | 0 | 0 | 0 | 0 |
| O=C(Nc1cccc(C(F)(F)F)c1)Nc1cc(S(=O)(=O)NC2CC2)ccc1-c1ccsc1 [AGI-6780] | 0 | 0 | 0.5 | 0 |
| COc1ccc2c(OCc3nnc4ccc(-c5ccccc5)nn34)ccnc2c1 [AMG-208] | 1.9 | 8.6 | 0 | 0 |
| CC(C)[C@@H](CS(=O)(=O)C(C)C)N1C(=O)[C@@](C)(CC(=O)O)C[C@H](c2cccc(Cl)c2)[C@H]1c1ccc(Cl)cc1 [AMG-232] | 0 | 0 | 12.7 | 0 |
| Cc1csc(-c2nnc(Nc3ccc(Oc4ncccc4-c4ccnc(N)n4)cc3)c3ccccc23)c1 [AMG-900] | 0 | 0.3 | 0 | 0 |
| CC1CCC(n2c3cnccc3c3cnc(Nc4ccc5c(n4)CCN(C(=O)CO)C5)nc32)CC1 (centres undefined) [AMG-925] | 0 | 0 | 0 | 0 |
| COCC1(CO)C(=O)C2CCN1CC2 (centres undefined) [APR-246] | 1.3 | 0 | 0 | 0 |
| CC(C)[C@H](C(=O)Nc1ccc(C(=O)NO)cc1)c1ccccc1 [AR-42] | 9.3 | 9.5 | 12.6 | 7.5 |
| CNC(=O)c1ccc(N2C(=S)N(c3cnc(C#N)c(C(F)(F)F)c3)C(=O)C23CCC3)cc1F [ARN 509] | 0 | 0.4 | 0 | 0 |
| COc1cc(N2CCC(N3CCN(C)CC3)CC2)ccc1Nc1ncnc(Nc2ccccc2S(=O)(=O)C(C)C)n1 [ASP3026] | 0.3 | 3.7 | 0 | 0 |

| Compound | drug sensitivity score (MDA-MB-231 [1]; shRNA: shPPFIA1_1) [DSS] | drug sensitivity score (MDA-MB-231 [1]; shRNA: shScramble) [DSS] | drug sensitivity score (MDA-MB-231 [2]; shRNA: shPPFIA1_1) [DSS] | drug sensitivity score (MDA-MB-231 [2]; shRNA: shScramble) [DSS] |
| --- | --- | --- | --- | --- |
| O=C(NC1CCNCC1)c1n[nH]cc1NC(=O)c1c(Cl)cccc1Cl [AT7519] | 5.6 | 12.7 | 8.6 | 5.3 |
| O=C(Nc1c[nH]nc1-c1nc2ccc(CN3CCOCC3)cc2[nH]1)NC1CC1 [AT9283] | 0 | 0.5 | 0.2 | 0.8 |
| CC[C@H](CC#N)OC(=O)N[C@@H](C)c1cccc(NC(=O)Nc2ccc(-c3cnco3)c(OC)c2)c1 [AVN944] | 0 | 5.4 | 0 | 0 |
| COc1cc(N2CCN(C)CC2)ccc1Nc1nccc(-c2cn(C)c3cnccc23)n1 [AZ191] | 3.6 | 6.8 | 0 | 2.9 |
| COc1cc(OC2CCN(C)CC2)ccc1Nc1ncc2c(n1)n(C1CCCC1)c(=O)n2C [AZ 3146] | 4.7 | 8.7 | 0.7 | 2.7 |
| CC(C)Oc1cc(Nc2nc(N[C@@H](C)c3ccc(F)cn3)ncc2Cl)n[nH]1 [AZ-23] | 0 | 0 | 0 | 1 |
| N[C@@H]1CCCN(c2c(/C=C3\SC(=O)NC3=O)cccc2-c2ccccc2)C1 [AZD1208] | 0 | 0 | 0 | 0 |
| Cc1cc(Nc2nc(N[C@@H](C)c3ncc(F)cn3)ncc2Cl)[nH]n1 [AZD1480] | 0 | 0 | 0 | 0 |
| CNC(=O)c1cccc(-c2ccc3c(N4CCOC[C@@H]4C)nc(N4CCOC[C@@H]4C)nc3n2)c1 [AZD2014] | 0 | 7.9 | 0 | 0.5 |
| COc1cc(CCc2cc(NC(=O)c3ccc(N4CC(C)NC(C)C4)cc3)n[nH]2)cc(OC)c1 (centres undefined) [AZD4547] | 0 | 0 | 0 | 0 |
| CN(C)C(=O)c1ccc(S(=O)(=O)c2ccc(NC(=O)[C@@](C)(O)C(F)(F)F)c(Cl)c2)cc1 [AZD7545] | 3.6 | 0 | 0 | 0 |
| NC(=O)Nc1cc(-c2cccc(F)c2)sc1C(=O)N[C@H]1CCCNC1 [AZD7762] | 4.5 | 5.7 | 2.8 | 0.1 |
| COc1ccc(-c2ccc3c(N4CCOC[C@@H]4C)nc(N4CCOC[C@@H]4C)nc3n2)cc1CO [AZD8055] | 2.3 | 9.6 | 0 | 0 |
| N#Cc1ccc2[nH]c(O)c(-c3ccc(CN4CCOCC4)cn3)c2c1 [AZD-1080] | 0 | 0 | 0 | 0 |
| Cc1ncc(-c2ccnc(Nc3ccc(S(C)(=O)=O)cc3)n2)n1C(C)C [AZD-5438] | 0.1 | 2.3 | 2.7 | 0.5 |
| C[C@@H](Nc1cc(F)cc(F)c1)c1cc(C(=O)N(C)C)cc2c(=O)cc(N3CCOCC3)oc12 [AZD-8186] | 0 | 1.7 | 0 | 0 |
| CCN1CCN(Cc2ccc(Nc3ncc(F)c(-c4cc(F)c5nc(C)n(C(C)C)c5c4)n3)nc2)CC1 [Abemaciclib] | 0.9 | 0 | 0.9 | 0 |
| CN(C)Cc1c(C(=O)NCCOc2ccc(C(=O)NO)cc2)oc2ccccc12 [Abexinostat] | 3.4 | 12.2 | 16.6 | 10.4 |
| C[C@]12CC[C@H](O)CC1=CC[C@@H]1[C@@H]2CC[C@]2(C)C(c3cccnc3)=CC[C@@H]12 [Abiraterone] | 0 | 0.9 | 0 | 0 |
| Cn1ncc(Cl)c1-c1cc(C(=O)N[C@H](CN)Cc2cccc(F)c2)sc1Cl [Afuresertib] | 0.5 | 1.6 | 0 | 0 |
| COc1cccc2c1C(=O)c1c(O)c3c(c(O)c1C2=O)C[C@@](O)(/C(CO)=N/NC(=O)CCCCCN1C(=O)C=CC1=O)C[C@@H]3O[C@H]1C[C@H](N)[C@H](O)[C@H](C)O1 [Aldoxorubicin] | 1.2 | 7.3 | 0 | 0 |
| CCc1cc2c(cc1N1CCC(N3CCOCC3)CC1)C(C)(C)c1[nH]c3cc(C#N)ccc3c1C2=O [Alectinib] | 0 | 0.4 | 0 | 0 |
